# From patent publication US20240262806A1, “INHIBITORS OF NLRP3” (PTC THERAPEUTICS, INC., priority 2021, published 2024)
# Tested on: NLRP3 inflammasome
# Assay: IL-1β Secretion Assay (NLRP3-dependent IL-1β secretion in PMA-differentiated THP-1 cells, nigericin activation, HTRF)
# Format: cell-based
# Settings: Homo sapiens, THP-1, THP-1 cells, 100 ng/mL PMA 24 h, compound 20 h, 2.5 μM Nigericin 3 h; read-out: IC50 IL-1β Inhibition
# Method in brief: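 PMA-differentiated THP-1 cells in RPMI with 5% FBS were treated with compounds at 7 concentrations in threefold DMSO dilutions. NLRP3 was activated with nigericin and secreted IL-1β measured by HTRF. IC50 from a logistic fit of percent inhibition versus concentration.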
row,SMILES,IC50
1,CN1CCC[C@@H](Nc2nnc(-c3ccc(-c4ccn(C)c4)cc3O)c3ccccc23)C1 [Compound I-94],0.001 to 0.01 µM
2,C[C@]1(O)C[C@@H](Nc2nnc(-c3ccc(OC(F)(F)F)cc3O)c3cccn23)C1 [Compound I-523],0.01 to 0.1 µM
3,CCN1CCC[C@@H](Nc2nnc(-c3ccc(OC)cc3O)c3cccn23)C1 [Compound I-377],0.001 to 0.01 µM
4,Cc1cc(F)c(-c2nnc(N[C@@H]3CCCN(CC(C)(C)O)C3)n3cccc23)c(OC(F)F)c1 [Compound I-476],0.1 to 0.3 µM
5,CN1CCC[C@@H](Nc2nnc(-c3ccc(C#N)nc3O)c3ccccc23)C1 [Compound I-80],0.1 to 0.3 µM
6,C[C@H]1COCCN1CCNc1nnc(-c2ccc(C(F)(F)F)cc2O)c2ccccc12 [Compound I-148],0.01 to 0.1 µM
7,FC(F)Oc1cc(C(F)(F)F)ccc1-c1nnc(N[C@@H]2CCCN(CC(F)(F)F)C2)n2cccc12 [Compound I-494],0.1 to 0.3 µM
8,C[C@]1(O)C[C@@H](Nc2nnc(-c3ccc(Br)cc3O)c3ccnn23)C1 [Compound I-544],0.001 to 0.01 µM
9,OCCN1CCC[C@@H](Nc2nnc(-c3ccc(Cl)cc3O)c3cccn23)C1 [Compound I-369],0.001 to 0.01 µM
10,CN1CCC[C@@H](Nc2nnc(-c3ccc(C4=CCCOC4)cc3O)c3ccccc23)C1 [Compound I-52],0.001 to 0.01 µM
11,CCN1CCC[C@@H](Nc2nnc(-c3ccc(C4CC4)cc3C(F)F)c3cccn23)C1 [Compound I-508],0.001 to 0.01 µM
12,Cc1cc2c(N[C@@H]3CCCN(CCO)C3)nnc(-c3ccc(C(F)(F)F)cc3O)n2n1 [Compound I-338],0.01 to 0.1 µM
13,Cc1cc(O)c(-c2nnc(N[C@@H]3CCCN(CC(F)F)C3)n3cccc23)c(F)c1 [Compound I-511],0.001 to 0.01 µM
14,CC(C)(O)CNc1nnc(-c2ccc(C(F)(F)F)cc2OC(F)F)c2cccn12 [Compound I-536],0.01 to 0.1 µM
15,CC(C)N1CCC[C@@H](Nc2nnc(-c3ccc(C(F)(F)F)cc3OC(F)F)c3c(F)ccn23)C1 [Compound I-592],< 0.001 µM
16,C[C@]1(O)C[C@@H](Nc2nnc(-c3c(O)cc(OC(F)F)cc3F)c3cccn23)C1 [Compound I-618],0.01 to 0.1 µM
17,CN1CCC[C@@H](Nc2nnc(-c3ccc(C(F)(F)F)cc3-c3ccn(C)n3)c3ccncc23)C1 [Compound I-232],0.01 to 0.1 µM
18,CCN1CCC[C@@H](Nc2nnc(-c3c(O)cc(C)cc3F)c3cccn23)C1 [Compound I-498],< 0.001 µM
19,Cc1cc(F)c(-c2nnc(N[C@@H]3CCCN(C4CCOCC4)C3)n3cccc23)c(OC(F)F)c1 [Compound I-475],0.01 to 0.1 µM
20,Oc1cc(C(F)(F)F)ccc1-c1nnc(N[C@H]2CNCCOC2)c2cnccc12 [Compound I-252],0.01 to 0.1 µM
21,CN1CCC[C@@H](Nc2nnc(-c3ccc(C(F)(F)F)cc3C(F)F)c3ccncc23)C1 [Compound I-138],0.001 to 0.01 µM
22,CN1CCC[C@@H](Nc2nnc(-c3cc(-c4ccccc4)ccc3O)c3ccccc23)C1 [Compound I-40],0.1 to 0.3 µM
23,OCCN1CCC[C@@H](Nc2nnc(-c3c(O)cc(C(F)(F)F)cc3F)c3cccn23)C1 [Compound I-415],0.001 to 0.01 µM
24,CN(C)CC1CCN(c2nnc(-c3ccc(C(F)(F)F)cc3O)c3ccccc23)C1 (stereo not shown) [Compound I-203],0.01 to 0.1 µM
25,"Oc1cc(C(F)(F)F)ccc1-c1nnc(N[C@@H]2CCCNC2)c2c1CCCCC2 [Compound I-31, (R)-2-(4-(Piperidin-3-ylamino)-6,7,8,9-tetrahydro-5H-cyclohepta[d]pyridazin-1-yl)-5-(trifluoromethyl)phenol]",< 0.001 µM

row,SMILES,IC50
1,"CN1CCC[C@@H](Nc2nnc(-c3ccc(OC4CC4)cc3O)c3ccncc23)C1 [Compound I-237, (R)-5-Cyclopropoxy-2-(4-((1-methylpiperidin-3-yl)amino)pyrido[3,4-d]pyridazin-1-yl)phenol]",0.001 to 0.01 µM
2,Cc1cc(O)c(-c2nnc(N[C@@H]3CCCN(C4CCOC4)C3)n3cccc23)c(F)c1 (stereo partly shown) [Compound I-489],0.001 to 0.01 µM
3,FC(F)Oc1cc(C(F)(F)F)ccc1-c1nnc(N[C@@H]2CCCOC2)n2cccc12 [Compound I-376],0.001 to 0.01 µM
4,CN1CCC(Nc2nnc(-c3ccc(C(F)(F)F)cc3O)c3ccncc23)CC12CC2 (stereo not shown) [Compound I-212],0.01 to 0.1 µM
5,Cc1cc2c(-c3ccc(Br)cc3O)nnc(N[C@@H]3CCCN(C)C3)n2n1 [Compound I-334],< 0.001 µM
6,OCCN1CCCC[C@@H](Nc2nnc(-c3ccc(C(F)(F)F)cc3O)c3ccncc23)C1 [Compound I-317],0.001 to 0.01 µM
7,"[2H]C([2H])([2H])Oc1ccc(-c2nnc(N[C@@H]3CCCN(C)C3)n3cccc23)c(O)c1 [Compound I-501, (R)-5-(Methoxy-d3)-2-(4-((1-methylpiperidin-3-yl)amino)pyrrolo[1,2-d][1,2,4]triazin-1-yl)phenol]",< 0.001 µM
8,"CN1C[C@H](F)C[C@@H](Nc2nnc(-c3ccc(C(F)(F)F)cc3OC(F)F)c3cccn23)C1 [Compound I-413, 1-[2-(Difluoromethoxy)-4-(trifluoromethyl)phenyl]-N-[(3R,5R)-5-fluoro-1-methyl-3-piperidyl]pyrrolo[1,2-d][1,2,4]triazin-4-amine]",0.001 to 0.01 µM
9,CN1C[C@@H](O)C[C@@H](Nc2nnc(-c3ccc(C(F)(F)F)cc3O)c3ccccc23)C1 [Compound I-63],0.001 to 0.01 µM
10,FC(F)OCCN1CCC[C@@H](Nc2nnc(-c3ccc(C(F)(F)F)cc3C(F)(F)F)c3cccn23)C1 [Compound I-469],0.01 to 0.1 µM
11,Oc1cc(C(F)(F)F)ccc1-c1nnc(O[C@@H]2CCCNC2)c2ccccc12 [Compound I-21],0.01 to 0.1 µM
12,Oc1cc(C2CC2)cc(F)c1-c1nnc(N[C@@H]2CCC[C@H](O)C2)n2cccc12 [Compound I-424],0.001 to 0.01 µM
13,CN1CCC[C@@H](Nc2nnc(-c3cccc(C4CC4)c3O)c3ccncc23)C1 [Compound I-77],< 0.001 µM
14,Oc1cc(C(F)(F)F)ccc1-c1nnc(N[C@H]2CNC[C@@H](F)C2)n2cccc12 [Compound I-575],0.1 to 0.3 µM
15,Cc1cc2c(N[C@@H]3CCCN(C)C3)nnc(-c3ccc(C(F)(F)F)cc3O)n2n1 [Compound I-336],0.01 to 0.1 µM
16,Oc1cc(Cl)ccc1-c1nnc(N[C@@H]2CCOC2)n2cncc12 [Compound I-561],0.001 to 0.01 µM
17,Cc1cc(O)c(-c2nnc(N[C@@H]3CCCN(C(C)C)C3)n3cccc23)c(F)c1 [Compound I-569],< 0.001 µM
18,"CCOC(=O)[C@@H]1CC[C@@H](Nc2nnc(-c3ccc(C(F)(F)F)cc3O)c3ccncc23)CN1C [Compound I-318, Ethyl (2S,5R)-5-((1-(2-hydroxy-4-(trifluoromethyl)phenyl)pyrido[3,4-d]pyridazin-4-yl)amino)-1-methylpiperidine-2-carboxylate]",< 0.001 µM
19,FC(F)Oc1cc(C(F)(F)F)ccc1-c1nnc(NC[C@@H]2CCCO2)n2cccc12 [Compound I-610],0.01 to 0.1 µM
20,CCN1CCC[C@@H](Nc2nnc(-c3c(C)cc(C)cc3O)c3cccn23)C1 [Compound I-636],< 0.001 µM
21,CN1CCC[C@@H](Nc2nnc(-c3c(O)cc(Cl)cc3F)c3ccncc23)C1 [Compound I-170],< 0.001 µM
22,COc1ccc(-c2nnc(N[C@@H]3CCCN(C)C3)c3cnccc23)c(C(F)(F)F)c1 [Compound I-181],0.001 to 0.01 µM
23,COc1ccc(-c2nnc(N[C@@H]3CCCN(C)C3)n3cccc23)c(OC(F)F)c1 [Compound I-471],0.001 to 0.01 µM
24,O[C@H]1CCC[C@@H](Nc2nnc(-c3ccc(C(F)(F)F)cc3OC(F)F)c3c(F)ccn23)C1 [Compound I-524],0.01 to 0.1 µM
